Legend:
[1] = test system: carrageenin-induced edema; experiment: Anti-inflammatory activity: inhibition of carrageenin-induced edema (Example 6); type: in vivo, rat (female Wister); details: 4 hours after carrageenin
Procedure: Anti-inflammatory activity of the present compound was examined by using 10 female Wister rats of 110 to 130 g of body weight as one group following the method of C. A. Winter [refer to Proc. Soc. Exp. Biol. Med., 111, 544(1962)]in which the ratio of inhibiting the carrageenin-induced edema is determined.
(§1) An aqueous suspension of each specimen in an aqueous 1% carboxymethoxycellulose solution was orally administered to the rat in volume of 1 ml per 100 g body weight. The rat as the control group was administered with only an aqueous 1% solution of carboxymethoxycellulose. One hour after the administration, 0.1 ml of an aqueous 1% solution of carrageenin in physiological saline was injected into the plantar tissue of the right hind paw of the rat. Then, after 4 hours from the injection, the volume of the injected foot was measured to find the volume of swelling by subtracting the volume of foot before the injection from that value.
(§2) By comparing the volume of the swelling of the administered group to that of the control group, the ratio of inhibiting the swelling (I.R., %) was calculated according to the following formula: [formula] wherein T represents the average volume of swelling in the group administered with the specimen, and
(§3) C represents the average volume of swelling in the control group.

[2] = in vivo; details: oral, mouse, in olive oil, 14 days observation
Procedure: Acute toxicity of the present compound were determined as follows.
Each of the specimens was dispersed in an olive oil. The dispersion was administered to an ICR-JCL mouse orally by a stomach sonde at a predetermined amount. After administration, the intoxication symptoms were continuously observed for 14 days. LD50 value was obtained from the cumulative mortality of the mice by applying the data to the Litchfield-Wilcoxon's graphical method.

[3] = test system: carrageenin-induced edema; experiment: Anti-inflammatory activity: inhibition of carrageenin-induced edema (Example 7, rats of 92 to 112 g); type: in vivo, rat (female Wister)
Procedure: […] A. Winter [refer to Proc. Soc.
as §1, §2, §3

Row | SMILES | Inhibitation of carrageenin-induced edema ([1]; oral dose 25 mg/Kg) [%] | Inhibitation of carrageenin-induced edema ([1]; oral dose 50 mg/Kg) [%] | Inhibitation of carrageenin-induced edema ([1]; oral dose 100 mg/Kg) [%] | Inhibitation of carrageenin-induced edema ([1]; oral dose 200 mg/Kg) [%] | LD50 at 336 h [2] [mg/kg] | Inhibitation of carrageenin-induced edema ([1]; oral dose 2.5 mg/Kg) [%] | Inhibitation of carrageenin-induced edema ([1]; oral dose 5 mg/Kg) [%] | Inhibitation of carrageenin-induced edema ([1]; oral dose 10 mg/Kg) [%] | Inhibition of carrageenin-induced edema ([3]; oral dose 25 mg/kg) [%] | Inhibition of carrageenin-induced edema ([3]; oral dose 100 mg/kg) [%]
1 | CC(C)Cc1ccc(C(C)C(=O)O)cc1 (centres unmarked) [Specimen IV, 2-(p-isobutylphenyl)propionic acid, reference compound] | 29 | 40 | 42 | 52 |  |  |  |  |  | 
2 | CC(C(=O)O)c1ccc(CC(C(F)(F)F)C(F)(F)F)cc1 (centres unmarked) [Specimen I, 2-[p-(2-trifluoromethyl-3,3,3-trifluoropropyl)phenyl]propionic acid] | 50 | 55 | 57 | 63 | 1100 | 37 | 40 | 46 |  | 
3 | CC(=O)Oc1ccccc1C(=O)O [Specimen V, acetyl salicyclic acid, reference compound] |  |  |  |  |  |  |  |  | 10 | 28
4 | CC(C(=O)O)c1ccc(CCC(F)(F)F)cc1 (centres unmarked) [Specimen III, 2-[p-(3,3,3-trifluoropropyl)phenyl]propionic acid] |  |  |  |  | 1000 |  |  |  | 38 | 44
5 | CC(C(=O)O)c1ccc(CC(C)C(F)(F)F)cc1 (centres unmarked) [Specimen II, 2-[p-(2-methyl-3,3,3-trifluoropropyl)phenyl]propionic acid] |  | 50 | 54 | 65 | 1040 |  | 37 | 40 |  | 
